# Reference: patent US20230356105A1, “TETRAAZADODECANE BASED CHELATING AGENTS FOR SEPARATION OF RARE EARTH ELEMENTS AND METHOD THEREFOR” (Ustav Organicke Chemie a Biochemie AV CR V.V.I., priority 2020, published 2023)
# Where “and” joins values, the source holds several entries; their conditions need not be identical. Equal entries are not always repeated. Marks after values point to notes of the source that are not given here.
# Experiments:
# Type in all cases: physicochemical
# [1] = Separation of industrially relevant binary mixtures by precipitation using L1, L2 and L3 (Example 10); details: supernatant
# Method: Analogous to Example 7), three sets of reaction mixtures with two metals and either compound L1, L2, or L3 were prepared in a 96-well plate with the following differences: each well was equipped with one PTFE-coated magnetic stir bar, the well plate was sealed with a silicon cover, and the reaction mixtures were stirred on a magnetic stirrer for 2 days at room temperature. Analogous to Example 7), the well plate was then centrifuged and concentrations of the metals were determined using ICP-OES. […] It is evident from the results that certain degrees of enrichment are achieved for very different combinations of metals, and that ligands L1, L2, and L3 have different selectivities for given combinations of metals.
# [2] = Ultrafiltration to remove benzoic acid and effect precipitation of L5 complexes (Example 26)
# Method: Stock solutions were pipetted into a 20 mL glass vial to prepare the reaction mixture: • 1. 938 μL 196 mM aqueous chelator L5 (pH=4) • 2. 836 μL 1000 mM aqueous benzoic acid (stock solution containing 1 equivalent NaOH) • 3. 8000 μL H2O • 4. 952 μL 175.5 mM aqueous LnCl3 solution (from a stock solution containing a mixture of Ln=Nd, Pr, Tb, and Dy, in a ratio of 3.3:1:1:1, Nd:Pr:Tb:Dy)
# The reaction solution was then titrated to pH 6.5 by addition of aqueous 2 M NaOH. The solution was stirred on a magnetic stir-plate at room temperature for 1 hour, and the precipitate was removed from the solution by filtration through a 0.45 μtm regenerated cellulose syringe filter. From this filtered solution, 1 mL was set aside for elemental analysis as the “initial” solution, 1 mL was set aside as a “control” solution in a clean 4 mL glass vial with a PTFE-coated stir bar to be stirred at 600 rpm at room temperature on a magnetic stirrer, and the remaining 9 mL were diluted slightly by addition of 2 mL H2O, then filtered on an ultrafiltration system with a nanofiltration membrane with molecular weight cut-off of 100-250 Da (NFS membrane, Synder Filtration, CA, USA), 4 bar N2 to pressurize the system, magnetic stiffing at 250 rpm, and continual addition of water to replace the filtered volume. The filtrate was collected in an Erlenmeyer flask, and a total volume of 50 mL was filtered over 11 hours. After this time, the “retained” reaction mixture, now having a volume of 10.5 mL and with some precipitate present, was transferred to a clean 20 mL glass vial and stirred by PTFE-coated stir bar on a magnetic stirrer at 600 rpm for an additional 10 hours, as was the control solution. After this additional time, samples of both the control solution and the retained solution from the ultrafiltration were prepared for elemental analysis by filtration through 0.45 μm nylon syringe filters. The initial, control, and retained solutions were then analysed by ICP-OES for determination of absolute Nd, Pr, Dy, and Tb content.
# [3] = Separation of Eu/Yb mixture by precipitation from water/acetonitrile solutions using L5 (Example 17); details: for Precipitate concentration [mM] Eu / Precipitate concentration [mM] Yb: dissolved to 100 μL
# Method: 3 reaction mixtures, differing in acetonitrile content (group A=10%, group B=20%, group C=50%) were prepared in plastic round-bottom 2 mL Eppendorf tubes, each in duplicate. For group A, the stock solutions were pipetted as follows: 5 μL 100 mM aqueous solution of EuCl3; 5 μL 100 mM aqueous solution YbC13; 10 μL 100 mM aqueous solution of compound L5; 20 μL 3 M MOPS buffer pH=7; 50 μL water; 10 μL acetonitrile.
# For group B, the stock solutions were pipetted as follows: 5 μL 100 mM aqueous solution of EuCl3; 5 μL 100 mM aqueous solution YbC13; 10 μL 100 mM aqueous solution of compound L5; 20 μL 3 M MOPS buffer pH=7; 40 μL water; 20 μL acetonitrile. For group C, the stock solutions were pipetted as follows: 5 μL 100 mM aqueous solution of EuCl3; 5 μL 100 mM aqueous solution YbC13; 10 μL 100 mM aqueous solution of compound L5; 20 μL 3 M MOPS buffer pH=7; 10 μL water; 50 μL acetonitrile.
# Each tube was equipped with one PTFE-coated magnetic stir bar and sealed, and the mixture was stirred on a magnetic stirrer for 24 hours at room temperature. The tubes were then centrifuged and the supernatants were carefully pipetted out and transferred to a new set of tubes. To the precipitate was added 100 μL 1 M HCl and mixture was stirred until full dissolution (overnight at room temperature, pH=0). Concentrations of Eu and Yb in the supernatants and in the re-dissolved precipitates were determined by ICP-OES. The resulting absolute concentrations of both metals in the supernatants and precipitates, as well as calculated values of the separation factor Yb/Eu according to the formula from Example 11), are summarized in Table 11.
# [4] = control solution, stirred without ultrafiltration
# [5] = initial solution (L5 + benzoic acid, pH 6.5, filtered)
# [6] = retained solution after ultrafiltration (100-250 Da membrane)
# [7] = retained*, recalculated from end volume 10.5 to original 9.0 mL
# [8] = group A, 10% acetonitrile, mean of duplicates
# [9] = group B, 20% acetonitrile, mean of duplicates
# [10] = group C, 50% acetonitrile, mean of duplicates
structure (smiles),measurement,setting,value
"O=C(O)CN1CCN(CC(=O)O)CCN(Cc2ccccc2)CCN(CC(=O)O)CC1 [L1, 2,2′,2″-(10-benzyl-1,4,7,10-tetraazacyclododecane-1,4,7-triyl)triacetic Acid]",[mM] M1,[1]; M1/M2=Eu/Y,0.118 mM
same,[mM] M2,[1]; M1/M2=Eu/Y,0.265 mM
same,[mM] M1,[1]; M1/M2=La/Ce,0.603 mM
same,[mM] M2,[1]; M1/M2=La/Ce,0.388 mM
same,[mM] M1,[1]; M1/M2=Nd/Ce,0.397 mM
same,[mM] M2,[1]; M1/M2=Nd/Ce,0.038 mM
same,[mM] M1,[1]; M1/M2=Nd/Dy,0.204 mM
same,[mM] M2,[1]; M1/M2=Nd/Dy,0.302 mM
same,[mM] M1,[1]; M1/M2=Nd/La,0.177 mM
same,[mM] M2,[1]; M1/M2=Nd/La,0.559 mM
same,[mM] M1,[1]; M1/M2=Nd/Pr,0.530 mM
same,[mM] M2,[1]; M1/M2=Nd/Pr,0.572 mM
same,[mM] M1,[1]; M1/M2=Nd/Tb,0.325 mM
same,[mM] M2,[1]; M1/M2=Nd/Tb,0.142 mM
same,[mM] M1,[1]; M1/M2=Pr/Ce,0.186 mM
same,[mM] M2,[1]; M1/M2=Pr/Ce,0.285 mM
same,[mM] M1,[1]; M1/M2=Pr/Dy,0.216 mM
same,[mM] M2,[1]; M1/M2=Pr/Dy,0.157 mM
same,[mM] M1,[1]; M1/M2=Pr/La,0.246 mM
same,[mM] M2,[1]; M1/M2=Pr/La,0.569 mM
same,[mM] M1,[1]; M1/M2=Tb/Dy,0.216 mM
same,[mM] M2,[1]; M1/M2=Tb/Dy,0.284 mM
same,[mM] M1,[1]; M1/M2=Tb/Eu,0.206 mM
same,[mM] M2,[1]; M1/M2=Tb/Eu,0.159 mM
same,[mM] M1,[1]; M1/M2=Tb/Pr,0.116 mM
same,[mM] M2,[1]; M1/M2=Tb/Pr,0.211 mM
same,[mM] M1,[1]; M1/M2=Tb/Y,0.143 mM
same,[mM] M2,[1]; M1/M2=Tb/Y,0.361 mM
"O=C(O)CN1CCN(CC(=O)O)CCN(Cc2cccc3ccccc23)CCN(CC(=O)O)CC1 [L5, 2,2′,2″-(10-(naphthalene-1-ylmethyl)-1,4,7,10-tetraazacyklododekane-1,4,7-triyl)triacetic acid]",concentration Dy,[2]; [4],760 µM
same,concentration Nd,[2]; [4],1800 µM
same,concentration Pr,[2]; [4],400 µM
same,concentration Tb,[2]; [4],750 µM
same,concentration sum of M,[2]; [4],3710 µM
same,concentration Dy,[2]; [5],770 µM
same,concentration Nd,[2]; [5],1800 µM
same,concentration Pr,[2]; [5],400 µM
same,concentration Tb,[2]; [5],760 µM
same,concentration sum of M,[2]; [5],3730 µM
same,concentration Dy,[2]; [6],440 µM
same,concentration Nd,[2]; [6],1030 µM
same,concentration Pr,[2]; [6],230 µM
same,concentration Tb,[2]; [6],420 µM
same,concentration sum of M,[2]; [6],2120 µM
same,concentration Dy,[2]; [7],510 µM
same,concentration Nd,[2]; [7],1200 µM
same,concentration Pr,[2]; [7],270 µM
same,concentration Tb,[2]; [7],490 µM
same,concentration sum of M,[2]; [7],2470 µM
same,Supernatant concentration [mM] Eu,"[3]; group A, 10% acetonitrile",0.58 mM and 0.35 mM
same,Supernatant concentration [mM] Yb,"[3]; group A, 10% acetonitrile",4.55 mM and 4.42 mM
same,Precipitate concentration [mM] Eu,"[3]; group A, 10% acetonitrile",2.78 mM and 2.98 mM
same,Precipitate concentration [mM] Yb,"[3]; group A, 10% acetonitrile",0.29 mM and 0.36 mM
same,Precipitate concentration [mM] Eu,[3]; [8],2.88 mM
same,Precipitate concentration [mM] Yb,[3]; [8],0.32 mM
same,Supernatant concentration [mM] Eu,[3]; [8],0.47 mM
same,Supernatant concentration [mM] Yb,[3]; [8],4.48 mM
same,Supernatant concentration [mM] Eu,"[3]; group B, 20% acetonitrile",0.45 mM and 0.63 mM
same,Supernatant concentration [mM] Yb,"[3]; group B, 20% acetonitrile",3.99 mM and 4.71 mM
same,Precipitate concentration [mM] Eu,"[3]; group B, 20% acetonitrile",3.16 mM and 2.95 mM
same,Precipitate concentration [mM] Yb,"[3]; group B, 20% acetonitrile",0.38 mM and 0.41 mM
same,Precipitate concentration [mM] Eu,[3]; [9],3.06 mM
same,Precipitate concentration [mM] Yb,[3]; [9],0.40 mM
same,Supernatant concentration [mM] Eu,[3]; [9],0.54 mM
same,Supernatant concentration [mM] Yb,[3]; [9],4.35 mM
same,Supernatant concentration [mM] Eu,"[3]; group C, 50% acetonitrile",1.51** mM and 0.79** mM
same,Supernatant concentration [mM] Yb,"[3]; group C, 50% acetonitrile",6.29** mM and 5.77** mM
same,Precipitate concentration [mM] Eu,"[3]; group C, 50% acetonitrile",3.22 mM and 3.90 mM
same,Precipitate concentration [mM] Yb,"[3]; group C, 50% acetonitrile",0.42 mM and 0.37 mM
same,Precipitate concentration [mM] Eu,[3]; [10],3.56 mM
same,Precipitate concentration [mM] Yb,[3]; [10],0.39 mM
same,Supernatant concentration [mM] Eu,[3]; [10],1.15 mM
same,Supernatant concentration [mM] Yb,[3]; [10],6.03 mM
